Reference: patent US20230365563A1, “QUINAZOLINE COMPOUND AND APPLICATION THEREOF” (SHANGHAI PHARMACEUTICALS HOLDING CO., LTD., priority 2020, published 2023)
Counter-ions that a name gives are not always drawn.

Assays:
[1] = molecular target: T1, KRAS-G12D and SOS1 (Homo sapiens, UniProt P01116, G12D); experiment: Inhibition of KRAS-G12D/SOS1 binding (Cisbio binding kit, 665/615 ratio), Effect Embodiment A; details: read-out: GTP-KRAS-G12D:SOS1 IC50
T1 construct: purchased
Method in brief: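 Compounds are tested over eleven threefold dilution steps in duplicate, with final DMSO at 1%.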

[2] = molecular target: T2, KRAS_WT and SOS1 (Homo sapiens, UniProt P01116); experiment: Inhibition of KRAS_WT/SOS1 binding (Cisbio binding kit, 665/615 ratio), Effect Embodiment C; details: read-out: GTP-KRAS-WT:SOS1 IC50
T2 construct: purchased
T2 sequence (P01116 1-188 isoform P01116-2): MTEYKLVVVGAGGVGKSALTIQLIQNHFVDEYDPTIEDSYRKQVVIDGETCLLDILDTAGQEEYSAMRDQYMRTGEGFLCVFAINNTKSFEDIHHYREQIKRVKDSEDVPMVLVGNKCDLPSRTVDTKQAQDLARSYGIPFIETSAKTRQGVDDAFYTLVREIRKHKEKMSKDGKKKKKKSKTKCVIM
Procedure: The inhibitory ability of small molecule compounds on the binding activity of KRAS_WT and SOS1 was examined by a drug screening system based on the combination of KRAS_WT and SOS1.
(§1) Similarly, the first dilution point of the compound to be tested was its storage solution, and the solution was 3-fold diluted, with 11+0 points of dilution. Echo was used to transfer 0.2 μL gradient diluted solution of the compounds into a 384-well plate, with 2 duplicated wells for each compound, and the final concentration of DMSO was 1%. The solution was centrifuged for 1 min at 1000 rpm/min.
(§2) IC50 of the compounds was fitted by Graphpad Prism 8 nonlinear regression equation: […]
(§3) The IC50 (half inhibitory concentration) of the compound was obtained by using the following nonlinear fitting formula: […]

[3] = molecular target: T3, KRAS_G12D and cRAF (Homo sapiens, UniProt P01116, G12D); experiment: Inhibition of KRAS_G12D/cRAF binding (Cisbio binding kit, 665/615 ratio), Effect Embodiment B; details: read-out: GTP-KRAS-G12D:CRAF IC50
T3 construct: purchased
T3 sequence (P01116 1-188 isoform P01116-2 G12D): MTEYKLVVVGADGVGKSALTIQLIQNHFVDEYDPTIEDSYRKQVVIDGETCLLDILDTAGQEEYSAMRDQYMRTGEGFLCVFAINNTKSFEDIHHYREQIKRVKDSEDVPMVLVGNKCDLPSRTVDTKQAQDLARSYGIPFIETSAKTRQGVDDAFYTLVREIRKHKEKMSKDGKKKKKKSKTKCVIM
Procedure: as §1, §2, §3

T1 sequence (P01116 1-188 isoform P01116-2 G12D): as above

Row | SMILES | IC50 [1] [nM] | IC50 [2] [nM] | IC50 [3] [nM]
1 | CC(COc1nc(N2CC3CCC(C2)N3)c2cc(Cl)c(-c3cc(O)cc4ccccc34)c(F)c2n1)CN1C2CCC1COC2 (single isomer, unassigned) [Compound 178b, 4-((7R or 7S)-2-((2S or 2R)-3-(3-oxa-8-azabicyclo[3.2.1]octan-8-yl)-2-methylpropoxy)-4-((1R,5S)-3,8-diazabicyclo[3.2.1]octan-3-yl)-6-chloro-8-fluoroquinazolin-7-yl)naphthalen-2-ol dicarboxylate] | 39.7 | 1050 | 150
2 | C[C@@H]1C[C@@H](COc2nc(N3CC4CCC(C3)N4)c3cnc(-c4cc(O)cc5ccccc45)c(F)c3n2)N(C)C1 [Compound 142, 4-(4-((1R,5S)-3,8-diazabicyclo[3.2.1]octan-3-yl)-2-((2S,4R)-1,4-methylpyrrolidin-2-yl)methoxy)-8-fluoropyridinyl[4,3-d]pyrimidin-7-yl)naphthalen-2-ol diformate] | 16 | 394 | 30.5
3 | CN(C)C1CN(c2nc(N3CC4(CNC4)C3)c3cc(Cl)c(-c4cc(O)cc5ccccc45)c(F)c3n2)C1 (single isomer, unassigned) [Compound 7a, (R or S)-4-(6-chloro-2-(3-(dimethylamino)azetidin-1-yl)-8-fluoro-4-(2,6-diazaspiro[3.3]heptan-2-yl)quinazolin-7-yl)naphthalen-2-ol] | 278 | 15900 | 3330
4 | CN1CCC1CCOc1nc(N2CC3CCC(C2)N3)c2cc(Cl)c(-c3cc(O)cc4ccccc34)c(F)c2n1 (single isomer, unassigned) [Compound 112a, 4-((S or R)-4-((1R,5S)-3,8-diazabicyclo[3.2.1]octan-3-yl)-6-chloro-8-fluoro-2-(2-((S or R)-1-methylazetidin-2-yl)ethoxy)quinazolin-7-yl)naphthalen-2-ol dicarboxylate] | 57.4 | 2520 | 119
5 | C[C@@H]1CN(CC2(COc3nc(N4CC5CCC(C4)N5)c4cc(Cl)c(-c5cc(O)cc6ccccc56)c(F)c4n3)CC2)C[C@H](C)O1 (single isomer, unassigned) [Compound 207, 4-((S or R)-4-((1R,5S)-3,8-diazabicyclo[3.2.1]octan-3-yl)-6-chloro-2-((2S,6R)-2,6-dimethylmorpholinyl)methyl)cyclopropyl)methoxy)-8-fluoroquinazolin-7-yl)naphthalenol formate] | 11.6 | 196 | 7.23
6 | CCc1c(F)ccc2cc(O)cc(-c3c(Cl)cc4c(N5CC6CCC(C5)N6)nc(OCCCN5C6CCC5COC6)nc4c3F)c12 (single isomer, unassigned) [compound 251] | 27.6 | 257 | 67.6
7 | CO[C@@H](COc1nc(N2CC3CCC(C2)N3)c2cc(Cl)c(-c3cc(O)cc4ccccc34)c(F)c2n1)CN1CCCC[C@H]1C (single isomer, unassigned) [Compound 266, (R or S)-4-(4-((1R,5S)-3,8-diazacyclo[3.2.1]octan-3-yl)-6-chloro-8-fluoro-2-((R)-2-methoxy-3-((R)-2-methylpiperidin-1-yl)propoxy)quinazolin-7-yl)naphthalen-2-ol diformate] | 174 | > 10000 | 746
8 | CN1CC[C@H]1COc1nc(N2CC3CCC(C2)N3)c2cc(Cl)c(-c3cc(O)cc4ccccc34)c(F)c2n1 (single isomer, unassigned) [Compound 100, 4-((S or R)-4-((1R,5S)-3,8-diazabicyclo[3.2.1]octan-3-yl)-6-chloro-8-fluoro-2-(S)-1-methylazetidin-2-yl)methoxy)quinazolin-7-yl)naphthalen-2-ol bitrifluoroacetate] | 19.1 | 504 | 53.7
9 | CN(C)C1CN(c2nc(N3CCNCC3)c3cc(Cl)c(-c4cc(O)cc5ccccc45)c(F)c3n2)C1 (single isomer, unassigned) [Comparative embodiment a, reference compound] | 1350 | – | 7310
10 | CN(C)C1CN(c2nc(N3CCC4NCCC43)c3cc(Cl)c(-c4cc(O)cc5ccccc45)c(F)c3n2)C1 (single isomer, unassigned) [Compound 36, 4-((S or R)-6-chloro-2-(3-(dimethylamino)azetidin-1-yl)-8-fluoro-4-((3aS,6aS or 3aR,6aR)-hexahydropyrrolo [3,2-b]pyrrole-1(2H)-yl)quinazolin-7-yl)naphthalen-2-ol] | 277 | > 100000 | –
11 | C[C@@H](COc1nc(N2CC3CCC(C2)N3)c2cc(Cl)c(-c3cc(O)cc4ccccc34)c(F)c2n1)CN1C[C@@H](C)OC[C@@H]1C (single isomer, unassigned) [Compound 226, 4-((S or R)-4-((1R,5S)-3,8-diazabicyclo[3.2.1]octan-3-yl)-6-chloro-2-((R)-3-((2R,5S)-2,5-dimethylmorpholinyl)-2-methylpropoxy)-8-fluoroquinazolin-7-yl)naphthalenol formate] | 67.9 | – | 154
12 | CN(C)C1CN(c2nc(N3C[C@H]4CC[C@@H](C3)N4)c3cnc(-c4cc(O)cc5ccccc45)c(F)c3n2)C1 [Compound 78, 4-(4-((1R,5S)-3,8-diazabicyclo[3.2.1]octan-3-yl)-2-(3-(dimethylamino)azetidin-1-yl)-8-fluoropyridine[4,3-d]pyrimidin-7-yl)naphthalen-2-ol] | 44.2 | 847 | –
13 | CC[C@@H]1CN(C[C@@H](C)COc2nc(N3CC4CCC(C3)N4)c3cc(Cl)c(-c4cc(O)cc5ccccc45)c(F)c3n2)C[C@H](CC)O1 (single isomer, unassigned) [Compound 219, 4-((S or R)-4-((1R,5S)-3,8-diazabicyclo[3.2.1]octan-3-yl)-6-chloro-2-((R)-3-((2R,6S)-2,6-diethylmorpholinyl)-2-methylpropoxy)-8-fluoroquinazolin-7-yl)naphthalen-2-ol formate] | 17.4 | – | 21.6
14 | Oc1cc(-c2c(Cl)cc3c(N4CC5CCC(C4)N5)nc(OCC(CN4C5CCC4COC5)C4CC4)nc3c2F)c2ccccc2c1 (single isomer, unassigned) [Compound 209b, 4-((7S or 7R))-2-(2(S or R))-3-(3-oxa-8-azabicyclo[3.2.1]octan-8-yl)-2-cyclopropylpropoxy)-4-((1R,5S)-3,8-diazabicyclo[3.2.1]octan-3-yl)-6-chloro-8-fluoroquinazolin-7-yl)naphthalen-2-ol diformate] | 90.9 | – | 293
15 | CN(C)C1CN(c2nc(N3C4CC5CC3CC(C4)N5)c3cc(Cl)c(-c4cc(O)cc5ccccc45)c(F)c3n2)C1 (single isomer, unassigned) [Compound 34, 4-((S or R)-4-(2,6-diazaadamantan-2-yl)-6-chloro-2-(3-(dimethylamino)azetidin-1-yl)-8-fluoroquinazolin-7-yl)naphthalen-2-ol] | 188 | 279 | –
16 | Oc1cc(-c2c(Cl)cc3c(N4CC5CCC(C4)N5)nc(OCC(CN4C5CCC4COC5)C(F)(F)F)nc3c2F)c2ccccc2c1 (single isomer, unassigned) [Compound 218a, 4-((7S or 7R)-2-((2S or 2R)-2-((3-oxa-8-azabicyclo[3.2.1]octan-8-yl)methyl)-3,3,3-trifluoropropoxy)-4-((1R,5S)-3,8-diazabicyclo[3.2.1]octan-3-yl)-6-chloro-8-fluoroquinazolin-7-yl)naphthalen-2-ol diformate] | 91.9 | – | 579
17 | C[C@@H](COc1nc(N2CC3CCC(C2)N3)c2cc(Cl)c(-c3cc(B(O)O)cc4ccccc34)c(F)c2n1)CN1C2CCC1COC2 (single isomer, unassigned) [Compound 256, (4-((7S or 7R)-2-((2R)-3-(3-oxa-8-azabicyclo[3.2.1]octan-8-yl)-2-methylpropoxy)-4-((1R,5S)-3,8-diazabicyclo[3.2.1]octan-3-yl)-6-chloro-8-fluoroquinazolin-7-yl)naphthalen-2-yl)boronic acid ditrifluoroacetate] | 92.1 | – | 358
18 | Nc1cc(-c2c(Cl)cc3c(N4C[C@H]5CC[C@@H](C4)N5)nc(OCCCN4C5CCC4COC5)nc3c2F)c2ccccc2c1 (single isomer, unassigned) [Compound 192b, 4-((7S or 7R)-2-(3-(3-oxa-8-azabicyclo[3.2.1]octan-8-yl)propoxy)-4-((1R,5S)-3,8-diazabicyclo[3.2.1]octan-3-yl)-6-chloro-8-fluoroquinazolin-7-yl)naphthalen-2-amine tritrifluoroacetate] | 186 | – | 431
19 | CC(F)(COc1nc(N2CC3CCC(C2)N3)c2cc(Cl)c(-c3cc(O)cc4ccccc34)c(F)c2n1)CN1C2CCC1COC2 (single isomer, unassigned) [Compound 208b, (4S or 4R)-4-(2-((2(S or R)-3-(3-oxa-8-azabicyclo[3.2.1]octan-8-yl)-2-fluoro-2-methylpropoxy)-4-((1R,5S)-3,8-diazabicyclo[3.2.1]octan-3-yl)-6-chloro-8-fluoroquinazolin-7-yl)naphthalen-2-ol formate] | 97.5 | – | 272
